Laboratory results: article PMC11046913, “Activation of retinoic acid-related orphan receptor γ(t) by parabens and benzophenone UV-filters” (Toxicology, 2022)

tested on: estrogenic activity; experiment: not given; conditions: only at high micromolar concentrations; ref Charles and Darbre, 2009; cited from earlier work

SMILES | estrogenic activity
O=C(OCc1ccccc1)c1ccccc1O [Benzylsalicylate] | Estrogenic activity
O=C(OCc1ccccc1)c1ccccc1 [Benzylbenzoate] | Estrogenic activity

same assay, conditions: ref Suzuki et al., 2005; cited from earlier work

SMILES | estrogenic activity
O=C(c1ccc(O)cc1)c1ccc(O)cc1O [2,4,4’-trihydroxybenzophenone] | weak estrogenic activity

tested on: IL-22 mRNA in EL4 T-cells over expressing human RORγt; experiment: IL-22 mRNA expression (qRT-PCR) in EL4 cells overexpressing human RORγt; assay type: cell-based, murine; conditions: 1 μM, 5 h, PMA/ionomycin-stimulated
Description: (§1) EL4 cells were transfected with plasmid encoding the human variant of RORγt by electroporation and seeded into 12-well plates (500,000 cells and 1.6 μg plasmid in 2 mL cultivation medium per well). Transfection was performed using the NeonTM transfection system (Invitrogen, Carlsbad, CA, USA) as follows: 1.8 × 10^6 cells and 6 μg plasmid in 100 μL buffer R were exposed to one pulse (1080 V, 50 ms) utilizing a 100 μL gold tip. After incubation for 16 h, the cells were treated for 5 h with the indicated test compounds as well as PMA and ionomycin at a total concentration of 0.253 nM and 31.3 nM, respectively. Subsequently, cells were centrifuged at 200 g for 3 min and total RNA was isolated from the pellet with the RNeasy Mini Kit according to the manufacturer’s protocol (Qiagen, Venlo, Netherlands). Contamination with genomic DNA was prevented by on-column DNA digestion using DNase I (RNase-free, Qiagen). RNA (1 μg) was reverse transcribed to complementary DNA (cDNA) utilizing the Takara PrimeScript RT Reagent Kit, according to the manufacturer’s protocol (Takara Bio Inc., Kusatsu, Japan). Finally, quantitative polymerase chain reaction (qPCR) was performed using Kapa SYBER® Fast qPCR Master Mix (KAPA Biosystems, Wilmington, MA, USA) as described earlier ([Inderbinen et al., 2020]). The following primers were used: peptidylprolyl isomerase A (PPIA): forward 5’-[…]-3’, reverse 5’-[…]-3’; IL-17A: forward 5’-[…] CCAA-3’, reverse 5’-[…]-3’; IL-22: forward 5’-[…]-3’, reverse 5’-[…]-3’. Primer quality was verified by analysis of melting curves and inspection of the PCR product on an agarose gel (single band at the expected size of the amplified sequence). Resulting CT values were normalized to values of the endogenous control gene PPIA and compared to control according to the 2^−ΔΔCT method ([Schmittgen and Livak, 2008]).

SMILES | IL-22 transcription
CCc1ccc(N(CC(C)C)S(=O)(=O)c2ccc(OCC3CCOCC3)c(CO)c2)cc1 [GSK2981278, reference compound] | efficient modulation

same assay, conditions: 10 μM, 5 h, PMA/ionomycin-stimulated, vs vehicle control

SMILES | IL-22 transcription
CCCCCCOC(=O)c1ccc(O)cc1 [Hexylparaben, hexylparaben] | significantly increased transcription
COc1ccc(C(=O)c2ccc(C)cc2)c(O)c1 [Benzophenone-10, benzophenone-10] | tended to increase
O=C(OCc1ccccc1)c1ccccc1O [Benzylsalicylate] | did not significantly enhance
O=C(OCc1ccccc1)c1ccc(O)cc1 [Benzylparaben, benzylparaben] | tended to increase
O=C(Nc1ccc(C(O)(C(F)(F)F)C(F)(F)F)cc1)c1ccccc1Cl [SR0987, reference compound] | significantly increased transcription
Cc1ccc(OC(=O)c2ccccc2)cc1 [4-Methylphenylbenzoate] | did not significantly enhance
O=c1c(-c2ccc(O)cc2)coc2cc(O)cc(O)c12 [genistein, reference compound] | significantly increased transcription
O=C(OCc1ccccc1)c1ccccc1 [Benzylbenzoate] | did not significantly enhance

tested on: IL-17A mRNA in EL4 T-cells over expressing human RORγt; experiment: IL-17A mRNA expression (qRT-PCR) in EL4 cells overexpressing human RORγt; assay type: cell-based, murine; conditions: 1 μM, 5 h, PMA/ionomycin-stimulated
Description: as §1

SMILES | IL-17A transcription
CCc1ccc(N(CC(C)C)S(=O)(=O)c2ccc(OCC3CCOCC3)c(CO)c2)cc1 [GSK2981278, reference compound] | efficient modulation

same assay, conditions: 10 μM, 5 h, PMA/ionomycin-stimulated, vs vehicle control

SMILES | IL-17A transcription
CCCCCCOC(=O)c1ccc(O)cc1 [Hexylparaben, hexylparaben] | elevated expression
COc1ccc(C(=O)c2ccc(C)cc2)c(O)c1 [Benzophenone-10, benzophenone-10] | elevated expression
O=C(OCc1ccccc1)c1ccccc1O [Benzylsalicylate] | did not significantly enhance
O=C(OCc1ccccc1)c1ccc(O)cc1 [Benzylparaben, benzylparaben] | a trend was detected
O=C(Nc1ccc(C(O)(C(F)(F)F)C(F)(F)F)cc1)c1ccccc1Cl [SR0987, reference compound] | efficient modulation
Cc1ccc(OC(=O)c2ccccc2)cc1 [4-Methylphenylbenzoate] | did not significantly enhance
O=c1c(-c2ccc(O)cc2)coc2cc(O)cc(O)c12 [genistein, reference compound] | efficient modulation
O=C(OCc1ccccc1)c1ccccc1 [Benzylbenzoate] | did not significantly enhance

tested on: not given; experiment: not given; conditions: human skin; ref Benson et al., 2005; Fernandez et al., 2002; cited from earlier work

SMILES | skin penetration
COc1ccc(C(=O)c2ccccc2)c(O)c1 [benzophenone-3] | penetrate the human skin efficiently

same assay, conditions: ref Simeoni et al., 2004; Weigmann et al., 2001; cited from earlier work

SMILES | skin penetration
COc1ccc(C(=O)CC(=O)c2ccc(C(C)(C)C)cc2)cc1 [avobenzone] | limited skin penetration

molecular target: T1, RORγ (Mus musculus, UniProt P51450); experiment: cell-based; assay type: cell-based; conditions: first screening, 10 μM
T1 sequence (P51450 1-516): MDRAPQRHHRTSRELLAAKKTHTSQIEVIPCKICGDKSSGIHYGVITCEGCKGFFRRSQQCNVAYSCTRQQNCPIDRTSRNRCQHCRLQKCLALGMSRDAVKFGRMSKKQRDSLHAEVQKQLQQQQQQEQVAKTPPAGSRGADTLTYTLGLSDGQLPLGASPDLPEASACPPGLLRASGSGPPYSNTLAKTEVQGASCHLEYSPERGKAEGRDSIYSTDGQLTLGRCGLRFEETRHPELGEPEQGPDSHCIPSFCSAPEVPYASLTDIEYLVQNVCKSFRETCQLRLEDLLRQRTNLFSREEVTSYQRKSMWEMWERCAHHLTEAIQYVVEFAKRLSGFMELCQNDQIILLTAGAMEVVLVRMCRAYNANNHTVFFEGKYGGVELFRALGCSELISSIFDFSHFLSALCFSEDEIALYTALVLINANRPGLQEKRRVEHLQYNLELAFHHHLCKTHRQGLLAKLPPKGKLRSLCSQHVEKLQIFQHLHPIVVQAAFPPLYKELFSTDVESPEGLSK
Description: Both cell lines were cultured under standard conditions (37 °C, 5% CO2).

SMILES | RORγ-dependent transactivation compared to the DMSO vehicle control
COc1ccc(C(=O)c2ccc(C)cc2)c(O)c1 [Benzophenone-10, benzophenone-10] | more than 1.5 fold

same assay, conditions: micromolar concentrations

SMILES | RORγ agonistic effect (in words, discussion)
O=C(c1ccccc1)c1ccc(O)cc1O [benzophenone-1] | only weak RORγ agonistic effect

same assay, conditions: read-out: % increase in RORγ activity (mean ± SD), individual agonist at 1 μM

SMILES | activation at 1 µM
CCCCOC(=O)c1ccc(O)cc1 [Butylparaben, butylparaben] | 5 ± 4%
COc1ccc(C(=O)c2ccc(OC)cc2O)c(O)c1 [Benzophenone-6, benzophenone-6] | -1 ± 5%
COc1ccc(C(=O)c2ccc(C)cc2)c(O)c1 [Benzophenone-10, benzophenone-10] | 15 ± 5%
O=C(OCc1ccccc1)c1ccccc1O [Benzylsalicylate] | 18 ± 3%
O=C(OCc1ccccc1)c1ccc(O)cc1 [Benzylparaben, benzylparaben] | 13 ± 4%
Cc1ccc(OC(=O)c2ccccc2)cc1 [4-Methylphenylbenzoate] | 6 ± 9%
CCCCCCCOC(=O)c1ccc(O)cc1 [Heptylparaben, heptylparaben] | 5 ± 5%
O=C(OCc1ccccc1)c1ccccc1 [Benzylbenzoate] | 16 ± 12%
O=C(Oc1ccccc1)c1ccc(O)cc1 [Phenylparaben, phenylparaben] | 5 ± 2%

same assay, conditions: read-out: % increase in RORγ activity (mean ± SD), individual agonist at 2.5 μM

SMILES | activation at 2.5 µM
CCCCCCOC(=O)c1ccc(O)cc1 [Hexylparaben, hexylparaben] | 83 ± 8%
COc1ccc(C(=O)c2ccc(C)cc2)c(O)c1 [Benzophenone-10, benzophenone-10] | 63 ± 4%
O=C(OCc1ccccc1)c1ccc(O)cc1 [Benzylparaben, benzylparaben] | 45 ± 2%

same assay, conditions: read-out: RORγ-dependent transactivation compared to the DMSO vehicle control

SMILES | fold induction at 10 µM
CCCCCCOC(=O)c1ccc(O)cc1 [Hexylparaben, hexylparaben] | > 1.5
CCCCOC(=O)c1ccc(O)cc1 [Butylparaben, butylparaben] | > 1.5
COc1ccc(C(=O)c2ccc(OC)cc2O)c(O)c1 [Benzophenone-6, benzophenone-6] | > 1.5
O=C(OCc1ccccc1)c1ccc(O)cc1 [Benzylparaben, benzylparaben] | > 1.5
CCCCCCCOC(=O)c1ccc(O)cc1 [Heptylparaben, heptylparaben] | > 1.5
O=C(Oc1ccccc1)c1ccc(O)cc1 [Phenylparaben, phenylparaben] | > 1.5

same assay, conditions: screening at 10 μM

SMILES | RORγ agonistic activity (in words)
COc1ccc(C(=O)c2ccc(OC)cc2O)c(O)c1 [Benzophenone-6, benzophenone-6] | agonistic activity
COc1ccc(C(=O)c2ccc(C)cc2)c(O)c1 [Benzophenone-10, benzophenone-10] | agonistic activity
O=C(OCc1ccccc1)c1ccccc1O [Benzylsalicylate] | significant agonistic activity
COc1ccc(C(=O)c2ccccc2)c(O)c1 [benzophenone-3] | agonistic activity
O=C(c1ccc(O)cc1)c1ccc(O)cc1 [4,4’-dihydroxybenzophenone] | agonistic activity
O=C(c1ccc(O)cc1O)c1ccc(O)cc1O [benzophenone-2] | agonistic activity
Cc1ccc(OC(=O)c2ccccc2)cc1 [4-Methylphenylbenzoate] | significant agonistic activity
O=C(OCc1ccccc1)c1ccccc1 [Benzylbenzoate] | significant agonistic activity
O=C(c1ccc(O)cc1)c1ccc(O)cc1O [2,4,4’-trihydroxybenzophenone] | agonistic activity
Cc1ccc(Sc2ccc(C(=O)c3ccccc3)cc2)cc1 [4-(4-methylphenylthio)benzophenone] | agonistic activity

tested on: not given; experiment: not given; design: method as in CIR, 2008; conditions: relatively long alkyl side chain; ref CIR, 2008; cited from earlier work

SMILES | solubility
CCCCCCOC(=O)c1ccc(O)cc1 [Hexylparaben, hexylparaben] | reduced solubility

molecular target: T1, RORγ; experiment: not given; conditions: in presence of 1.25 μM SR2211, test compound at different concentrations

SMILES | Reversal of the SR2211-mediated inhibition of RORγ transactivation
CCCCCCOC(=O)c1ccc(O)cc1 [Hexylparaben, hexylparaben] | significant increase
COc1ccc(C(=O)c2ccc(C)cc2)c(O)c1 [Benzophenone-10, benzophenone-10] | significant increase
O=C(OCc1ccccc1)c1ccccc1O [Benzylsalicylate] | restore the suppressed RORγ activity in a concentration-dependent manner
O=C(OCc1ccccc1)c1ccc(O)cc1 [Benzylparaben, benzylparaben] | significant increase
Cc1ccc(OC(=O)c2ccccc2)cc1 [4-Methylphenylbenzoate] | failed to do so
O=C(OCc1ccccc1)c1ccccc1 [Benzylbenzoate] | restore the suppressed RORγ activity in a concentration-dependent manner

tested on: not given; experiment: not given; design: method as in Benson et al., 2005; Fernandez et al., 2002; conditions: human; ref Benson et al., 2005; Fernandez et al., 2002; cited from earlier work

SMILES | concentration in breast milk | concentration in serum | concentration in urine
COc1ccc(C(=O)c2ccccc2)c(O)c1 [benzophenone-3] | 779.9 ng/g milk | 304 ng/mL | 300 ng/mL
